Data reported in US8399416B2, “Method of using heparin binding motif for treating asthma” (National Tsing Hua University, priority 2008, dated 2013).

Assays:
[1] = system: ECP binding to Beas-2B cells; experiment: Competitive inhibition of MBP-ECP binding to Beas-2B cells (cell ELISA); type: cell-based, human; settings: Beas-2B cells preincubated with peptides 30 min at 4° C.
Description: FIG. 3. Heparin oligosaccharides inhibit ECP binding to cells. […] The amount of MBP-ECP bound to cells without GAG treatment was set to 100%. C, control (cells were incubated with MBP.) The data shown are the means of triplicate experiments.
FIG. 7. Synthetic peptides inhibit ECP binding to cells. […] The data shown are the means of triplicate experiments.
Beas-2B, a human bronchial epithelial cell line, was cultured in RPMI 1640 medium (Sigma-Aldrich) supplemented with heat-inactivated 10% fetal bovine serum (Gibco/Invitrogen, Carlsbad, Calif.).
The ability of MBP-ECP to bind cells in the presence of serial dilutions of oligosaccharides or peptides was determined as described (Fan, T. C., et al. (2007) Traffic 8, 1778-1795). At the present invention, synthetic heparins (dp3-9) were tested for their ability to interfere with ECP binding to Beas-2B cells. Briefly, confluent monolayers of Beas-2B cells in 96-well plates were pretreated with various concentrations of oligosaccharides or peptides in serum-free RPMI 1640 medium at 4° C. for 30 min before incubation with 5 μg/ml MBP-ECP at 4° C. for 1 h. The cells were then washed with ice-cold PBS and fixed with 2% PFA at room temperature for 15 min prior to blocking with 2% BSA/PBS at room temperature for 90 min. The level of bound MBP-ECP was quantified by ELISA analysis. MBP-ECP was detected using mouse monoclonal anti-MBP and goat anti-mouse horseradish peroxidase (HRP)-conjugated secondary antibody, followed by the enhanced chemiluminescence detection system. The amount of MBP-ECP bound to cells without oligosaccharide or peptide treatment was set to 100%.

Beas-2B cells = settings: biotinylated peptides, 1 h at 4° C.
Description: FIG. 7. Synthetic peptides inhibit ECP binding to cells. A, Beas-2B cells were preincubated with peptides in RPMI 1640 medium for 30 min at 4° C. before incubation with MBP-ECP for an additional 1 h. After treatment, the cells were washed with PBS and fixed with PFA. The level of bound MBP-ECP was assessed by ELISA. The amount of MBP-ECP bound to cells without peptide treatment was set to 100%. The data shown are the means of triplicate experiments. B, Beas2-B cells were incubated with biotinylated peptides for 1 h at 4° C. The amount of peptides bound to cells was assessed as for FIG. 3.
To investigate whether the RWRCK (SEQ ID NO: 8) motif is directly responsible for heparin binding, cell ELISA was conducted using a synthetic peptide, C1 (SEQ ID NO: 3), along with a positive control peptide derived from HIV-TAT, TAT (SEQ ID NO: 6) (Vives, E., et al. (1997) The Journal of biological chemistry 272, 16010-16017; Ziegler, A. and Seelig, J. (2004) Biophysical journal 86, 254-263). […] Therefore, synthetic peptides with heparin binding activity may compete with ECP for cellular binding. Furthermore, the cell surface binding ability of peptides was tested using cell ELISA assay.

[2] = AMAC-labeled LMWH, increasing peptide concentrations, room temperature 15 min
Description: FIG. 9. FACE analysis of synthetic peptides. AMAC-labeled LMWH were incubated without or with increasing concentrations of C1, TAT, D1 and R1 peptides at room temperature for 15 min. Samples were loaded and separated by agarose gel electrophoresis as described for FIG. 2.
Synthetic heparin oligosaccharide (FIG. 1) (Lee, C. J., et al. (2004) J Am Chem Soc 126, 476-477), low molecular weight heparin (LMWH) and PI-88 (kindly provided by Progen Inc., Australia) were labeled with 2-aminoacridone (AMAC) as described (Calabro, A., et al. (2000) Glycobiology 10, 273-281). AMAC-oligosaccharide and proteins were incubated at room temperature for 15 min, loaded onto 1% gels and electrophoresed as described (Holmes, O., et al. (2007) J Mol Biol 367, 395-408).
In addition, because EDN contains a conventional heparin binding sequence, the corresponding peptide, D1 (SEQ ID NO: 4), was also synthesized and tested.

[3] = PBS buffer at 25° C.; HMWH 10-20 μM
Description: FIG. 11. Isothermal titration calorimetry of heparin-peptide interaction. The top panels show the differential power time course. Raw data for sequential 6-μl injections of each synthetic peptide in PBS buffer at 25° C. TAT (positive control), B, R1 (negative control), C, C1, and D, D1 into the sample cell containing 1.4 ml HMWH solution (10-20 μM). The total heat released in each injection is proportional to the area under the corresponding peak. […] The solid line represents a non-linear least squares of the reaction heat for the injection.

With YGRKKRRQRRRK-biotin [TAT] as the substance, how does the “binding of MBP-ECP to cell-surface HS in the presence of peptide” value [1] read?
The value was “significantly reduced”.

What about the “cell surface binding ability of peptides” value (Beas-2B cells) of the same substance?
Its value is “bound to the cell surface”.

And the “interaction with LMWH (FACE)” value [2]?
Its value is “decreased amount of free AMAC-LMWH signal”.

What about the “heat release on binding to HMWH (ITC)” value [3] of the same substance?
The value was “significant exothermal reaction mode”.

For NYRWRCKNQNK-biotin [C1], which “binding of MBP-ECP to cell-surface HS in the presence of peptide” value [1] is on record?
The value was “significantly reduced”.

And the “cell surface binding ability of peptides” value (Beas-2B cells)?
The value was “bound to the cell surface”.

And the “interaction with LMWH (FACE)” value [2]?
Its value is “decreased amount of free AMAC-LMWH signal”.

And the “heat release on binding to HMWH (ITC)” value [3]?
The value was “exothermal reaction modes were clearly observed”.

With MTQGRCKPVNK-biotin [R1] as the substance, how does the “cell surface binding ability of peptides” value (Beas-2B cells) read?
The value was “devoid of such function”.

What about the “interaction with LMWH (FACE)” value [2] of the same substance?
The value was “did not bind heparin”.

What about the “heat release on binding to HMWH (ITC)” value [3] of the same substance?
Its value is “no heat release”.
